Laboratory results published in patent US9000159B2 (Glenmark Pharmaceuticals, S.A., priority 2009, dated 2015).

Biological target: T1, Human TRPA1 (Homo sapiens, UniProt O75762)
T1 construct: expressed in transfected cells; host or cells: CHO cells
Experiment: 45Calcium uptake assay: inhibition of AITC induced cellular uptake of radioactive calcium
Format: cell-based
Settings: AITC (30 μM) induced 45Ca uptake, Human TRPA1 expressing CHO cells; for inhibition at 1 µM: 1.0 μM test compound, read-out: Percentage inhibition at 1.0 μM; for inhibition at 10 µM: 10.0 μM test compound, read-out: Percentage inhibition at 10.0 μM; for IC50: read-out: Human IC50 value (range)
Outline: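 CHO cells stably expressing human TRPA1 (~50,000/well) preincubated 10 min with compound (0.5% DMSO, medium with 0.1% BSA, 1.8 mM CaCl2), then 30 μM AITC plus 5 μCi/ml 45Ca2+ for 3 min. Lysate radioactivity counted by scintillation; IC50 by nonlinear regression of % maximal uptake.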

T1 sequence (O75762 whole entry): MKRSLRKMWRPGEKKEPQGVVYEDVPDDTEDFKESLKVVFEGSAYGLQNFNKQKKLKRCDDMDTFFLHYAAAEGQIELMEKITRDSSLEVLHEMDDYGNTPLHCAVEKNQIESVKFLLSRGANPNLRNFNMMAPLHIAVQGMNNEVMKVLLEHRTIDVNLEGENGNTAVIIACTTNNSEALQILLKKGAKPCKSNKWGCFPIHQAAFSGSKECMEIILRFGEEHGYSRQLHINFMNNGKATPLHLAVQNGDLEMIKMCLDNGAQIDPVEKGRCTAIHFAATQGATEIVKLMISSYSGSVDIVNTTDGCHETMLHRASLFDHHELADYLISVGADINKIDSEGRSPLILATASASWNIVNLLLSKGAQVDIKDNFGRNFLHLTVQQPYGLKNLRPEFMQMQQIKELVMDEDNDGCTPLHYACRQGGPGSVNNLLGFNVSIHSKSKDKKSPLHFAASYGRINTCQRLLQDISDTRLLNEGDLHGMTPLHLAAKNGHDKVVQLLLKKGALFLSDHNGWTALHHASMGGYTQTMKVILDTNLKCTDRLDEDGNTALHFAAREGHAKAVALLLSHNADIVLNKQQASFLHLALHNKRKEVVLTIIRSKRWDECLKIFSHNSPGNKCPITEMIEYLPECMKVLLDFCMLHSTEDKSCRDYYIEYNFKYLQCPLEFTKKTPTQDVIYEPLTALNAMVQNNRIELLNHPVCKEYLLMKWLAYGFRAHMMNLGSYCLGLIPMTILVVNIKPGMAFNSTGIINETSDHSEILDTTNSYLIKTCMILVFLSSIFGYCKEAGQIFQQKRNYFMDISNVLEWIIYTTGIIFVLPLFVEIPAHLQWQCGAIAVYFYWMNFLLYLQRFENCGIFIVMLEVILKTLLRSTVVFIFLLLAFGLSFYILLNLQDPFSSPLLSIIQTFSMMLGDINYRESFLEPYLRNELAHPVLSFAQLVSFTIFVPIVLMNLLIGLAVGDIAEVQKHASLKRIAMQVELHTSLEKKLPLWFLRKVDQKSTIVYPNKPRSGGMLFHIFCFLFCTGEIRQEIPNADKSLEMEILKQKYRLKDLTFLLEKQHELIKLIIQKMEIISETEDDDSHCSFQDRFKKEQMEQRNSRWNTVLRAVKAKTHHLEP

Structure (SMILES)	inhibition at 1 µM [%]	inhibition at 10 µM [%]	IC50 [nM]
Cn1nc2c(c1CC(=O)Nc1nc(-c3ccc(C(F)(F)F)c(F)c3F)cs1)c(=O)n(C)c(=O)n2C [Example 62, N-{4-[2,3-difluoro-4-(trifluoromethyl)phenyl]-1,3-thiazol-2-yl}-2-(2,5,7-trimethyl-4,6-dioxo-4,5,6,7-tetrahydro-2H-pyrazolo[3,4-d]pyrimidin-3-yl)acetamide]	90.3	95.8	< 50
Cn1nc2c(c1CC(=O)Nc1nc(-c3ccc(F)c(C(F)(F)F)c3F)cs1)c(=O)n(C)c(=O)n2C [Example 63, N-{4-[2,4-Difluoro-3-(trifluoromethyl)phenyl]-1,3-thiazol-2-yl}-2-(2,5,7-trimethyl-4,6-dioxo-4,5,6,7-tetrahydro-2H-pyrazolo[3,4-d]pyrimidin-3-yl)acetamide]	95.1	99.7	< 50
Cn1nc2c(c1CC(=O)Nc1nc(-c3cc(F)c(OC(F)F)c(F)c3)cs1)c(=O)n(C)c(=O)n2C [Example 64, N-{4-[4-(Difluoromethoxy)-3,5-difluorophenyl]-1,3-thiazol-2-yl}-2-(2,5,7-trimethyl-4,6-dioxo-4,5,6,7-tetrahydro-2H-pyrazolo[3,4-d]pyrimidin-3-yl)acetamide]	97.8	98.3	< 50
Cn1nc2c(c1CC(=O)Nc1cc(-c3ccc(Br)cc3)on1)c(=O)n(C)c(=O)n2C [Example 65, N-[5-(4-Bromophenyl)isoxazol-3-yl]-2-(2,5,7-trimethyl-4,6-dioxo-4,5,6,7-tetrahydro-2H-pyrazolo[3,4-d]pyrimidin-3-yl)acetamide]	12.5	24.6	–
Cn1nc2c(c1CC(=O)Nc1nc3cc(OC(F)(F)F)ccc3s1)c(=O)n(C)c(=O)n2C [Example 66, N-[5-(Trifluoromethoxy)-1,3-benzothiazol-2-yl]-2-(2,5,7-trimethyl-4,6-dioxo-4,5,6,7-tetrahydro-2H-pyrazolo[3,4-d]pyrimidin-3-yl)acetamide]	45	71.5	–
Cn1c(=O)c2c(cnn2CC(=O)Nc2nc(-c3ccc(Cl)cc3)cs2)n(C)c1=O [Example 67, N-[4-(4-Chlorophenyl)-1,3-thiazol-2-yl]-2-(4,6-dimethyl-5,7-dioxo-4,5,6,7-tetrahydro-1H-pyrazolo[4,3-d]pyrimidin-1-yl)acetamide]	57.6	98.4	–
Cn1c(=O)c2c(cnn2CC(=O)Nc2nc(-c3ccc(C(F)(F)F)c(F)c3)cs2)n(C)c1=O [Example 68, 2-(4,6-Dimethyl-5,7-dioxo-4,5,6,7-tetrahydro-1H-pyrazolo[4,3-d]pyrimidin-1-yl)-N-{4-[3-fluoro-4-(trifluoromethyl)phenyl]-1,3-thiazol-2-yl}acetamide]	91.3	99.4	> 100
Cn1c(=O)c2c(cnn2CC(=O)Nc2nc(-c3ccc(OCC(C)(C)C)c(F)c3)cs2)n(C)c1=O [Example 69, N-{4-[4-(2,2-Dimethylpropoxy)-3-fluorophenyl]-1,3-thiazol-2-yl}-2-(4,6-dimethyl-5,7-dioxo-4,5,6,7-tetrahydro-1H-pyrazolo[4,3-d]pyrimidin-1-yl)acetamide]	97.3	99.8	< 50
Cn1c(=O)c2c(cnn2CC(=O)Nc2nc(-c3ccc(OCC(C)(C)C)c(Cl)c3)cs2)n(C)c1=O [Example 70, N-{4-[3-Chloro-4-(2,2-dimethylpropoxy)phenyl]-1,3-thiazol-2-yl}-2-(4,6-dimethyl-5,7-dioxo-4,5,6,7-tetrahydro-1H-pyrazolo[4,3-d]pyrimidin-1-yl)acetamide]	91.5	98.8	< 50
Cn1c(=O)c2c(cnn2CC(=O)Nc2nc(-c3ccc(F)c(C(F)(F)F)c3F)cs2)n(C)c1=O [Example 71, N-{4-[2,4-Difluoro-3-(trifluoromethyl)phenyl]-1,3-thiazol-2-yl}-2-(4,6-dimethyl-5,7-dioxo-4,5,6,7-tetrahydro-1H-pyrazolo[4,3-d]pyrimidin-1-yl)acetamide]	78.2	99.3	50 to 100
Cn1c(=O)c2c(cnn2CC(=O)Nc2nc(-c3cc(F)c(OC(F)F)c(F)c3)cs2)n(C)c1=O [Example 72, N-{4-[4-(Difluoromethoxy)-3,5-difluorophenyl]-1,3-thiazol-2-yl}-2-(4,6-dimethyl-5,7-dioxo-4,5,6,7-tetrahydro-1H-pyrazolo[4,3-d]pyrimidin-1-yl)acetamide]	85.9	97.7	> 100
Cn1c(=O)c2c(cnn2CC(=O)Nc2nc(-c3cc(F)c(OCC(F)(F)F)c(F)c3)cs2)n(C)c1=O [Example 73, N-{4-[3,5-Difluoro-4-(2,2,2-trifluoroethoxy)phenyl]-1,3-thiazol-2-yl}-2-(4,6-dimethyl-5,7-dioxo-4,5,6,7-tetrahydro-1H-pyrazolo[4,3-d]pyrimidin-1-yl)acetamide]	99.1	99.9	< 50
CC(C)COc1c(F)cc(-c2csc(NC(=O)Cn3ncc4c3c(=O)n(C)c(=O)n4C)n2)cc1F [Example 74, N-[4-(3,5-Difluoro-4-isobutoxyphenyl)-1,3-thiazol-2-yl]-2-(4,6-dimethyl-5,7-dioxo-4,5,6,7-tetrahydro-1H-pyrazolo[4,3-d]pyrimidin-1-yl)acetamide]	92.1	98.8	< 50
CC(C)COc1c(Cl)cc(-c2csc(NC(=O)Cn3ncc4c3c(=O)n(C)c(=O)n4C)n2)cc1Cl [Example 75, N-[4-(3,5-Dichloro-4-isobutoxyphenyl)-1,3-thiazol-2-yl]-2-(4,6-dimethyl-5,7-dioxo-4,5,6,7-tetrahydro-1H-pyrazolo[4,3-d]pyrimidin-1-yl)acetamide]	99.3	100	< 50
CC(C)CCOc1c(F)cc(-c2csc(NC(=O)Cn3ncc4c3c(=O)n(C)c(=O)n4C)n2)cc1F [Example 76, N-{4-[3,5-Difluoro-4-(3-methylbutoxy)phenyl]-1,3-thiazol-2-yl}-2-(4,6-dimethyl-5,7-dioxo-4,5,6,7-tetrahydro-1H-pyrazolo[4,3-d]pyrimidin-1-yl)acetamide]	84.3	95.6	> 100
Cn1c(=O)c2c(cnn2CC(=O)Nc2nc(-c3cc(F)c(OCC(C)(C)C)c(F)c3)cs2)n(C)c1=O [Example 78, N-{4-[4-(2,2-Dimethylpropoxy)-3,5-difluorophenyl]-1,3-thiazol-2-yl}-2-(4,6-dimethyl-5,7-dioxo-4,5,6,7-tetrahydro-1H-pyrazolo[4,3-d]pyrimidin-1-yl)acetamide]	100	99.7	< 50
Cn1c(=O)c2c(cnn2CC(=O)Nc2nc(-c3cc(Cl)c(OCC(C)(C)C)c(Cl)c3)cs2)n(C)c1=O [Example 79, N-{4-[3,5-Dichloro-4-(2,2-dimethylpropoxy)phenyl]-1,3-thiazol-2-yl}-2-(4,6-dimethyl-5,7-dioxo-4,5,6,7-tetrahydro-1H-pyrazolo[4,3-d]pyrimidin-1-yl)acetamide]	100	100	< 50
